Source: patent US12358907B2, “Substituted pyrrolidine amides III” (GRÜNENTHAL GMBH, priority 2019, dated 2025)
Read-outs that look alike come from different tables or passages of the source.

Molecular target: glucocorticoid receptor (GAL4 DBD-GR) (Homo sapiens (Human), UniProt P04150)
Experiment: GR cell-based assays (GRE agonist / GRE antagonist), CHO-Gal4/GR luciferase reporter
Method in brief: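 CHO cells stably carrying GAL4 DBD-GR ligand-binding-domain fusion and a GAL4-UAS firefly luciferase reporter were treated in Opti-MEM with 8 half-log concentrations from 10 μM to 0.003 μM (0.5% DMSO, quadruplicates). Antagonist mode measured repression of beclomethasone-induced signal. Luminescence after lysis gave EC50 or IC50.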

[1] = CHO-Gal4/GR reporter cells, agonist mode (EC50) or antagonist mode against beclometasone (IC50), 6 hour incubation

Sequence of glucocorticoid receptor (GAL4 DBD-GR) (P04150 524-758): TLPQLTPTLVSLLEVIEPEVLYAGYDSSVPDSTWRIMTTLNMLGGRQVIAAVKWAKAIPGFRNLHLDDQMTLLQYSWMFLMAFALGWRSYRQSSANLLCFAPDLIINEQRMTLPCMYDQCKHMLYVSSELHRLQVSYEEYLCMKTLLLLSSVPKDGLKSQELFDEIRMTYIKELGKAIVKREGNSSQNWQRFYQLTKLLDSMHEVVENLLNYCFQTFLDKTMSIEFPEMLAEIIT

| IC50 [1] [nM] | IC50 (read-out: IC50 or EC50) [nM] | SMILES |
| --- | --- | --- |
| < 100 |  | Cc1ncsc1C(=O)N[C@@H]1[C@@H](c2ccccc2)N(c2ccc3c(cnn3-c3ccc(F)cc3)c2)C(=O)C1(C)C [Example 38b, N-((2R,3S)-1-(1-(4-fluorophenyl)-1H-indazol-5-yl)-4,4-dimethyl-5-oxo-2-phenylpyrrolidin-3-yl)-4-methylthiazole-5-carboxamide] |
| < 100 |  | Cc1scnc1C(=O)N[C@@H]1[C@@H](c2ccccc2)N(c2ccc3c(cnn3-c3ccc(F)cc3)c2)C(=O)C1(C)C [Example 39a, N-((2R,3S)-1-(1-(4-fluorophenyl)-1H-indazol-5-yl)-4,4-dimethyl-5-oxo-2-phenylpyrrolidin-3-yl)-5-methylthiazole-4-carboxamide] |
| < 100 |  | Cc1nocc1C(=O)N[C@@H]1[C@@H](c2ccccc2)N(c2ccc3c(cnn3-c3ccc(F)cc3)c2)C(=O)C1(C)C [Example 40a, N-((2R,3S)-1-(1-(4-fluorophenyl)-1H-indazol-5-yl)-4,4-dimethyl-5-oxo-2-phenylpyrrolidin-3-yl)-3-methylisoxazole-4-carboxamide] |
|  | 100 to 1000 | Cc1nocc1C(=O)N[C@H]1[C@H](c2ccccc2)N(c2ccc3c(cnn3-c3ccc(F)cc3)c2)C(=O)C1(C)C [Example 40b, N-((2S,3R)-1-(1-(4-fluorophenyl)-1H-indazol-5-yl)-4,4-dimethyl-5-oxo-2-phenylpyrrolidin-3-yl)-3-methylisoxazole-4-carboxamide] |
|  | 1000 to 15000 | Cn1cc(C(=O)N[C@H]2[C@H](c3ccccc3)N(c3ccc4c(cnn4-c4ccc(F)cc4)c3)C(=O)C2(C)C)cn1 [Example 41b, N-((2S,3R)-1-(1-(4-fluorophenyl)-1H-indazol-5-yl)-4,4-dimethyl-5-oxo-2-phenylpyrrolidin-3-yl)-1-methyl-1H-pyrazole-4-carboxamide] |
| < 100 |  | CC1(C)C(=O)N(c2ccc3c(cnn3-c3ccc(F)cc3)c2)[C@H](c2ccccc2)[C@H]1NC(=O)c1cccnc1 [Example 42a, N-((2R,3S)-1-(1-(4-fluorophenyl)-1H-indazol-5-yl)-4,4-dimethyl-5-oxo-2-phenylpyrrolidin-3-yl)nicotinamide] |
|  | 100 to 1000 | CC1(C)C(=O)N(c2ccc3c(cnn3-c3ccc(F)cc3)c2)[C@@H](c2ccccc2)[C@@H]1NC(=O)c1cccnc1 [Example 42b, N-((2S,3R)-1-(1-(4-fluorophenyl)-1H-indazol-5-yl)-4,4-dimethyl-5-oxo-2-phenylpyrrolidin-3-yl)nicotinamide] |
| < 100 |  | CC1(C)C(=O)N(c2ccc3c(cnn3-c3ccc(F)cc3)c2)[C@H](c2ccccc2)[C@H]1NC(=O)c1ncccn1 [Example 43a, N-((2R,3S)-1-(1-(4-fluorophenyl)-1H-indazol-5-yl)-4,4-dimethyl-5-oxo-2-phenylpyrrolidin-3-yl)pyrimidine-2-carboxamide] |
|  | 1000 to 15000 | CC1(C)C(=O)N(c2ccc3c(cnn3-c3ccc(F)cc3)c2)[C@@H](c2ccccc2)[C@@H]1NC(=O)c1ncccn1 [Example 43b, N-((2S,3R)-1-(1-(4-fluorophenyl)-1H-indazol-5-yl)-4,4-dimethyl-5-oxo-2-phenylpyrrolidin-3-yl)pyrimidine-2-carboxamide] |
| < 100 |  | Cc1ncc(C(=O)N[C@@H]2[C@@H](c3ccccc3)N(c3ccc4c(cnn4-c4ccc(F)cc4)c3)C(=O)C2(C)C)o1 [Example 44a, N-((2R,3S)-1-(1-(4-fluorophenyl)-1H-indazol-5-yl)-4,4-dimethyl-5-oxo-2-phenylpyrrolidin-3-yl)-2-methyloxazole-5-carboxamide] |
|  | 100 to 1000 | Cc1ncc(C(=O)N[C@H]2[C@H](c3ccccc3)N(c3ccc4c(cnn4-c4ccc(F)cc4)c3)C(=O)C2(C)C)o1 [Example 44b, N-((2S,3R)-1-(1-(4-fluorophenyl)-1H-indazol-5-yl)-4,4-dimethyl-5-oxo-2-phenylpyrrolidin-3-yl)-2-methyloxazole-5-carboxamide] |
| < 100 |  | Cc1ncoc1C(=O)N[C@@H]1[C@@H](c2ccccc2)N(c2ccc3c(cnn3-c3ccc(F)cc3)c2)C(=O)C1(C)C [Example 45a, N-((2R,3S)-1-(1-(4-fluorophenyl)-1H-indazol-5-yl)-4,4-dimethyl-5-oxo-2-phenylpyrrolidin-3-yl)-4-methyloxazole-5-carboxamide] |
|  | 100 to 1000 | Cc1ncoc1C(=O)N[C@H]1[C@H](c2ccccc2)N(c2ccc3c(cnn3-c3ccc(F)cc3)c2)C(=O)C1(C)C [Example 45b, N-((2S,3R)-1-(1-(4-fluorophenyl)-1H-indazol-5-yl)-4,4-dimethyl-5-oxo-2-phenylpyrrolidin-3-yl)-4-methyloxazole-5-carboxamide] |
| < 100 |  | O=C(N[C@H]1[C@H](F)C(=O)N(c2ccc3c(cnn3-c3ccc(F)cc3)c2)[C@@H]1c1ccccc1)C1CC1 [Example 95, N-((2R,3R,4S)-4-fluoro-1-(1-(4-fluorophenyl)-1H-indazol-5-yl)-5-oxo-2-phenylpyrrolidin-3-yl)cyclopropanecarboxamide] |
| < 100 |  | O=C(N[C@@H]1[C@@H](c2ccccc2)N(c2ccc3c(cnn3-c3ccc(F)cc3)c2)C(=O)C1(F)F)C1CC1 [Example 96, N-((2R,3R)-4,4-difluoro-1-(1-(4-fluorophenyl)-1H-indazol-5-yl)-5-oxo-2-phenylpyrrolidin-3-yl)cyclopropanecarboxamide] |
|  | 100 to 1000 | C[C@@H]1C(=O)N(c2ccc3c(cnn3-c3ccc(F)cc3)c2)[C@H](c2ccc(Cl)s2)[C@H]1NS(C)(=O)=O [Example 114, N-[(2S,3S,4S)-2-(5-Chloro-thiophen-2-yl)-1-[1-(4-fluorophenyl)-1H-indazol-5-yl]-4-methyl-5-oxo-pyrrolidin-3-yl]-methanesulfonic acid amide] |
|  | 100 to 1000 | O=C(N[C@H]1[C@H](CC(F)F)C(=O)N(c2ccc3c(cnn3-c3ccc(F)cc3)c2)[C@@H]1c1ccccc1)C1CC1 [Example 131, N-((2R,3S,4S)-4-(2,2-difluoroethyl)-1-(1-(4-fluorophenyl)-1H-indazol-5-yl)-5-oxo-2-phenylpyrrolidin-3-yl)cyclopropanecarboxamide] |
| < 100 |  | O=C(N[C@@H]1[C@@H](c2ccccc2)N(c2ccc3c(cnn3-c3ccc(F)cc3)c2)C(=O)[C@@H]1CC(F)F)C1CC1 [Example 132, N-((2R,3S,4R)-4-(2,2-difluoroethyl)-1-(1-(4-fluorophenyl)-1H-indazol-5-yl)-5-oxo-2-phenylpyrrolidin-3-yl)cyclopropanecarboxamide] |
|  | 100 to 1000 | Cc1noc(C[C@@H]2C(=O)N(c3ccc4c(cnn4-c4ccc(F)cc4)c3)[C@H](c3ccccc3)[C@H]2NC(=O)C2CC2)n1 [Example 138, N-((2R,3S,4S)-1-(1-(4-fluorophenyl)-1H-indazol-5-yl)-4-((3-methyl-1,2,4-oxadiazol-5-yl)methyl)-5-oxo-2-phenylpyrrolidin-3-yl)cyclopropanecarboxamide] |
|  | 1000 to 15000 | Cn1cc(C[C@@H]2C(=O)N(c3ccc4c(cnn4-c4ccc(F)cc4)c3)[C@H](c3ccccc3)[C@H]2NC(=O)C2CC2)cn1 [Example 139a, N-((2R,3S,4S)-1-(1-(4-fluorophenyl)-1H-indazol-5-yl)-4-((1-methyl-1H-pyrazol-4-yl)methyl)-5-oxo-2-phenylpyrrolidin-3-yl)cyclopropanecarboxamide] |
|  | 1000 to 15000 | Cn1cc(C[C@H]2C(=O)N(c3ccc4c(cnn4-c4ccc(F)cc4)c3)[C@H](c3ccccc3)[C@H]2NC(=O)C2CC2)cn1 [Example 139b, N-((2R,3S,4R)-1-(1-(4-fluorophenyl)-1H-indazol-5-yl)-4-((1-methyl-1H-pyrazol-4-yl)methyl)-5-oxo-2-phenylpyrrolidin-3-yl)cyclopropanecarboxamide] |
|  | 100 to 1000 | O=C(N[C@@H]1[C@@H](c2ccccc2)N(c2ccc3c(cnn3-c3ccc(F)cc3)c2)C(=O)[C@@H]1Cc1nccs1)C1CC1 [Example 150, N-((2R,3S,4R)-1-(1-(4-fluorophenyl)-1H-indazol-5-yl)-5-oxo-2-phenyl-4-(thiazol-2-ylmethyl)pyrrolidin-3-yl)cyclopropanecarboxamide] |
|  | 100 to 1000 | C[C@@]1(c2ccc(Cl)s2)[C@@H](NC(=O)C2CC2)CC(=O)N1c1ccc2c(cnn2-c2ccc(F)cc2)c1 [Example 151, N-((2S,3S)-2-(5-chlorothiophen-2-yl)-1-(1-(4-fluorophenyl)-1H-indazol-5-yl)-2-methyl-5-oxopyrrolidin-3-yl)cyclopropanecarboxamide] |

| SMILES | IC50 [1] [nM] | IC50 (read-out: IC50 or EC50) [nM] |
| --- | --- | --- |
| O=C(N[C@@H]1[C@@H](c2ccccc2)N(c2ccc3c(cnn3-c3ccc(F)cc3)c2)C(=O)C12CCC2)C1CC1 [Example 135, N-((7R,8S)-6-(1-(4-fluorophenyl)-1H-indazol-5-yl)-5-oxo-7-phenyl-6-azaspiro[3.4]octan-8-yl)cyclopropanecarboxamid] | < 100 |  |
